For assay [1], the system named is human Cav3.1 Cav3.2 or Cav3.3 channel. As to the kind of experiment: In vitro assay T channel (FLIPR, Ca2+-induced fluorescence). The assay is classed as cell-based. The following applies: HEK293 cells expressing human Cav3.1 Cav3.2 or Cav3.3; 10 mM Ca2+; determined up to 10 μM; read-out: T channel antagonistic activity IC50. On the procedure:
Human embryonic kidney (HEK293) cells expressing the human Cav3.1 Cav3.2 or Cav3.3 channel, respectively, are grown in culture medium (DMEM containing 10% heat-inactivated fetal calf serum (FCS), 100 U/ml penicillin, 100 μg/ml streptomycin and 1 mg/ml G418). The cells are seeded at 20.000 cells/well into 384-well black clear bottom sterile plates (poly-L-lysine-coated, Becton Dickinson). The seeded plates are incubated overnight at 37° C. in 5% CO2. The Ca^2+ solution is prepared as 100 mM stock solution in 100 mM tetraethylammoniumchloride (TEA-chloride), 50 mM HEPES, 2.5 mM CaCl2, 5 mM KCl, 1 mM MgCl2, adjusted to pH 7.2 with TEA-hydroxide, for use in the assay at a final concentration of 10 mM. […] Fluorescence is measured for each well at 2 second intervals for 8 minutes, and the area under the curve of each fluorescence peak is compared to the area of the fluorescence peak induced by 10 mM Ca^2+ with vehicle in place of antagonist.

The subject of the next assay is isolated mouse hearts. As to the kind of experiment: Effect on isolated hearts according to the Langendorff method (Lgdff). The procedure:
The compounds were tested for their potential to reduce blood pressure and their effect on the contractility of the heart muscle. EC50 values on isolated mouse hearts were determined according to Literature (Doring H J., The isolated perfused heart according to Langendorff technique—function—application, Physiol. Bohemoslov. 1990, 39(6), 481-504; Kligfield P, Homer H, Brachfeld N., A model of graded ischemia in the isolated perfused rat heart, J. Appl. Physiol. 1976 June, 40(6), 1004-8).
15 example compounds have been measured using the procedure described above for the Langendorff experiment.

The structures appear in SMILES notation.

For orientation: IC50 means the concentration needed to halve the response being measured. In general, EC50 refers to the concentration giving half of the maximal effect. A lower EC50 goes with greater potency. Take `COc1cccc2[nH]c(CCCN(C)CC[C@@]3(OC(=O)CC(F)(F)F)C[C@@H]4CCC[C@H]3c3ccccc34)nc12` [Example 13B, 3,3,3-Trifluoro-propionic acid (1S,8S,12S)-12-(2-{[3-(4-methoxy-1H-benzoimidazol-2-yl)-propyl]-methyl-amino}-ethyl)-tricyclo[6.3.2.02,7]trideca-2,4,6-trien-12-yl ester or 3,3,3-trifluoro-propionic acid (1R,8R,12R)-12-(2-{[3-(4-methoxy-1H-benzoimidazol-2-yl)-propyl]-methyl-amino}-ethyl)-tricyclo[6.3.2.02,7]trideca-2,4,6-trien-12-yl ester]: in assay [1], the IC50 amounted to 653 nM. In the assay with isolated mouse hearts, this compound came in with an EC50 of 6 nM.

For `CC(C)C(=O)O[C@@]1(CCN(C)CCCc2nc3ccccc3[nH]2)C[C@H]2CC[C@@H]1c1cc(F)c(F)cc12` (relative stereo) [Example 9A, rac-Isobutyric acid (1R*,8R*,9R*)-9-(2-{[3-(1H-benzoimidazol-2-yl)-propyl]-methyl-amino}-ethyl)-4,5-difluoro-tricyclo[6.2.2.0^2,7]dodeca-2,4,6-trien-9-yl ester], the IC50 in assay [1] was 1400 nM. Besides, in the assay on isolated mouse hearts, the EC50 is 30 nM.

`CC(C)C(=O)OC1(CCN(C)CCCc2nc3ccccc3[nH]2)CC2CCCC1c1ccccc12` [Example 11A, Isobutyric acid (1S,8S,12S)-12-(2-{[3-(1H-Benzoimidazol-2-yl)-propyl]-methyl-amino}-ethyl)-tricyclo[6.3.2.0^2,7]trideca-2,4,6-trien-12-yl ester or isobutyric acid (1R,8R,12R)-12-(2-{[3-(1H-benzoimidazol-2-yl)-propyl]-methyl-amino}-ethyl)-tricyclo[6.3.2.0^2,7]trideca-2,4,6-trien-12-yl ester]: in assay [1], the IC50 was found to be 1050 nM. In the assay on isolated mouse hearts, this compound had an EC50 of 22 nM.

Regarding `CC(C)C(=O)O[C@@]1(CCN(C)CCCc2nc3ccccc3[nH]2)C[C@H]2CC[C@@H]1c1ccccc12` (relative stereo) [Example 1B, rac-Isobutyric acid (1R*,8R*,9R*)-9-(2-{[3-(1H-benzoimidazol-2-yl)-propyl]-methyl-amino}-ethyl)-tricyclo[6.2.2.0^2,7]dodeca-2,4,6-trien-9-yl ester], the IC50 in assay [1] was 2070 nM. In the assay with isolated mouse hearts, this compound showed an EC50 of 42 nM.

`CC(C)C(=O)O[C@@]1(CCN2CCC(c3nc4ccccc4[nH]3)CC2)C[C@H]2CC[C@@H]1c1ccccc12` (relative stereo) [Example 6A, rac-Isobutyric acid (1R*,8R*,9R*)-9-{2-[4-(1H-benzoimidazol-2-yl)-piperidin-1-yl]-ethyl}-tricyclo[6.2.2.0^2,7]dodeca-2,4,6-trien-9-yl ester]: the IC50 in assay [1] was 751 nM.

Regarding `COc1ccc(C)c2[nH]c(CCCN(C)CCC3(OC(=O)C(C)C)CC4CCCC3c3ccccc34)nc12` [Example 14A, Isobutyric acid (1S,8S,12S)-12-(2-{[3-(4-Methoxy-7-methyl-1H-benzoimidazol-2-yl)-propyl]-methyl-amino}-ethyl)-tricyclo[6.3.2.0^2,7]trideca-2,4,6-trien-12-yl ester or isobutyric acid (1R,8R,12R)-12-(2-{[3-(4-methoxy-7-methyl-1H-benzoimidazol-2-yl)-propyl]-methyl-amino}-ethyl)-tricyclo[6.3.2.0^2,7]trideca-2,4,6-trien-12-yl ester], the IC50 in assay [1] was determined as 191 nM.

For the compound `CC(C)C(=O)O[C@@]1(CCN2CCCC(c3nc4ccccc4[nH]3)C2)C[C@H]2CC[C@@H]1c1ccccc12` (relative stereo) [Example 7A, Isobutyric acid (1R*,8R*,9R*)-9-{2-[(3RS)-3-(1H-benzoimidazol-2-yl)-piperidin-1-yl]-ethyl}-tricyclo[6.2.2.0^2,7]dodeca-2,4,6-trien-9-yl ester], in assay [1], the IC50 was determined as 1110 nM.

On to `COc1ccc(C)c2[nH]c(CCCN(C)CCC3(O)CC4CCCC3c3ccccc34)nc12` (single isomer, unassigned) [Example 14, (1S,8S,12S)-12-(2-{[3-(4-Methoxy-7-methyl-1H-benzoimidazol-2-yl)-propyl]-methyl-amino}-ethyl)-tricyclo[6.3.2.0^2,7]trideca-2,4,6-trien-12-ol or (1R,8R,12R)-12-(2-{[3-(4-methoxy-7-methyl-1H-benzoimidazol-2-yl)-propyl]-methyl-amino}-ethyl)-tricyclo[6.3.2.0^2,7]trideca-2,4,6-trien-12-ol], for which the IC50 in assay [1] was found to be 736 nM.

Take `CN(CCCc1nc2ccccc2[nH]1)CC[C@]1(OC(=O)C2CC2)C[C@H]2CC[C@@H]1c1ccccc12` (relative stereo) [Example 1C, rac-Cyclopropanecarboxylic acid (1R*,8R*,9R*)-9-(2-{[3-(1H-benzoimidazol-2-yl)-propyl]-methyl-amino}-ethyl)-tricyclo[6.2.2.0^2,7]dodeca-2,4,6-trien-9-yl ester]: the IC50 in assay [1] is 969 nM.

`CC(C)C(=O)O[C@]1(CCN(C)CCCc2nc3ccccc3[nH]2)C[C@H]2CC[C@@H]1c1ccccc12` (relative stereo) [Example 5A, rac-Isobutyric acid (1R*,8R*,9S*)-9-(2-{[3-(1H-benzoimidazol-2-yl)-propyl]-methyl-amino}-ethyl)-tricyclo[6.2.2.0^2,7]dodeca-2,4,6-trien-9-yl ester]: in assay [1], the IC50 was determined as 5180 nM.

Consider `CC(C)C(=O)O[C@@]1(CCN(C)CCCc2nc3ccccc3[nH]2)C[C@H]2CCC[C@@H]1c1ccccc12` (relative stereo) [Example 10B, rac-Isobutyric acid (1R*,8R*,12R*)-12-(2-{[3-(1H-benzoimidazol-2-yl)-propyl]-methyl-amino}-ethyl)-tricyclo[6.3.2.0^2,7]trideca-2,4,6-trien-12-yl ester], for which the IC50 in assay [1] stood at 1310 nM.

The values are drawn from patent US8314253B2, “Bridged tetrahydronaphthalene derivatives” (Actelion Pharmaceuticals Ltd., priority 2008, dated 2012).
